Assay results as given in PubChem BioAssay AID1963968 (Molecular Pharmacology Branch, DTP, NCI, 2024).

Test system: 945468-187-T-J3-PDC spheroids with HUVEC/MSC, viability
Experiment: Anticancer human tumor 945468-187-T-J3-PDC patient-derived rectal carcinoma cell line growth inhibition [PI3K]
Conditions: for IC50: curve of first compound; for viability, T/C: stronger effect = lower value
How it was run: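 Viability of mixed-cell spheroids was determined after exposure to pairwise combinations, one partner being inavolisib, alpelisib, duvelisib or copanlisib. Highest tested concentration matched clinical Cmax where known and 10 microM where not, descending in half-log steps.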

[1] = second compound 0.00316 µM, first compound 0.0316 µM
[2] = second compound 0.00316 µM, first compound 0.1 µM
[3] = second compound 0.00316 µM, first compound 0.316 µM
[4] = second compound 0.00316 µM, first compound 1 µM
[5] = second compound 0.00316 µM, first compound 3.16 µM
[6] = second compound 0.00316 µM, first compound 10 µM
[7] = second compound 0.01 µM, first compound 0.0316 µM
[8] = second compound 0.01 µM, first compound 0.1 µM
[9] = second compound 0.01 µM, first compound 0.316 µM
[10] = second compound 0.01 µM, first compound 1 µM
[11] = second compound 0.01 µM, first compound 3.16 µM
[12] = second compound 0.01 µM, first compound 10 µM
[13] = second compound 0.0316 µM, first compound 0.0316 µM
[14] = second compound 0.0316 µM, first compound 0.1 µM
[15] = second compound 0.0316 µM, first compound 0.316 µM
[16] = second compound 0.0316 µM, first compound 1 µM
[17] = second compound 0.0316 µM, first compound 3.16 µM
[18] = second compound 0.0316 µM, first compound 10 µM
[19] = second compound 0.1 µM, first compound 0.0316 µM
[20] = second compound 0.1 µM, first compound 0.1 µM
[21] = second compound 0.1 µM, first compound 0.316 µM
[22] = second compound 0.1 µM, first compound 1 µM
[23] = second compound 0.1 µM, first compound 3.16 µM
[24] = second compound 0.1 µM, first compound 10 µM
[25] = second compound 0.316 µM, first compound 0.0316 µM
[26] = second compound 0.316 µM, first compound 0.1 µM
[27] = second compound 0.316 µM, first compound 0.316 µM
[28] = second compound 0.316 µM, first compound 1 µM
[29] = second compound 0.316 µM, first compound 3.16 µM
[30] = second compound 0.316 µM, first compound 10 µM
[31] = second compound 1 µM, first compound 0.0316 µM
[32] = second compound 1 µM, first compound 0.1 µM
[33] = second compound 1 µM, first compound 0.316 µM
[34] = second compound 1 µM, first compound 1 µM
[35] = second compound 1 µM, first compound 3.16 µM
[36] = second compound 1 µM, first compound 10 µM
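Also: spheroids exposed to agents for 7 days before viability read.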
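For viability, T/C in this document: 100% = DMSO vehicle control viability.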

Question: For `CC(C)NCC(C(=O)N1CCN(c2ncnc3c2C(C)CC3O)CC1)c1ccc(Cl)cc1` (stereo unspecified) + COc1c(OCCCN2CCOCC2)ccc2c3n(c(=NC(=O)c4cnc(N)nc4)nc12)CCN3, which IC50 (second compound 0.00316 µM) is on record?
Answer: 3.68 µM

Question: And the IC50 (second compound 0.01 µM)?
Answer: 3.74 µM

Question: And the IC50 (second compound 0.0316 µM)?
Answer: 1.85 µM

Question: What about the IC50 (second compound 0.1 µM) of the same compound?
Answer: < 0.0316 µM

Question: What about the IC50 (second compound 0.316 µM) of the same compound?
Answer: < 0.0316 µM

Question: And the IC50 (second compound 1 µM)?
Answer: < 0.0316 µM

Question: What about the viability, T/C [1] of the same compound?
Answer: 94.2%

Question: What about the viability, T/C [2] of the same compound?
Answer: 83.3%

Question: What about the viability, T/C [3] of the same compound?
Answer: 88.8%

Question: And the viability, T/C [4]?
Answer: 70.6%

Question: And the viability, T/C [5]?
Answer: 52.1%

Question: What about the viability, T/C [6] of the same compound?
Answer: 39.4%

Question: And the viability, T/C [7]?
Answer: 92.6%

Question: What about the viability, T/C [8] of the same compound?
Answer: 80.9%

Question: What about the viability, T/C [9] of the same compound?
Answer: 89.3%

Question: What about the viability, T/C [10] of the same compound?
Answer: 81.7%

Question: And the viability, T/C [11]?
Answer: 53.8%

Question: What about the viability, T/C [12] of the same compound?
Answer: 28.2%

Question: What about the viability, T/C [13] of the same compound?
Answer: 79%

Question: And the viability, T/C [14]?
Answer: 84.4%

Question: What about the viability, T/C [15] of the same compound?
Answer: 66.7%

Question: What about the viability, T/C [16] of the same compound?
Answer: 71.8%

Question: What about the viability, T/C [17] of the same compound?
Answer: 31.1%

Question: What about the viability, T/C [18] of the same compound?
Answer: 25.8%

Question: And the viability, T/C [19]?
Answer: 39%

Question: What about the viability, T/C [20] of the same compound?
Answer: 45.5%

Question: And the viability, T/C [21]?
Answer: 43.4%

Question: What about the viability, T/C [22] of the same compound?
Answer: 27.9%

Question: What about the viability, T/C [23] of the same compound?
Answer: 23.5%

Question: And the viability, T/C [24]?
Answer: 18.6%

Question: What about the viability, T/C [25] of the same compound?
Answer: 19.8%

Question: And the viability, T/C [26]?
Answer: 19.3%

Question: And the viability, T/C [27]?
Answer: 17.6%

Question: And the viability, T/C [28]?
Answer: 18%

Question: And the viability, T/C [29]?
Answer: 19.5%

Question: What about the viability, T/C [30] of the same compound?
Answer: 13.3%

Question: What about the viability, T/C [31] of the same compound?
Answer: 18.6%

Question: What about the viability, T/C [32] of the same compound?
Answer: 13.7%

Question: And the viability, T/C [33]?
Answer: 15.8%

Question: And the viability, T/C [34]?
Answer: 13.6%

Question: And the viability, T/C [35]?
Answer: 19.7%

Question: And the viability, T/C [36]?
Answer: 11.8%

Question: `CCN1CCN(Cc2ccc(Nc3ncc(F)c(-c4cc(F)c5nc(C)n(C(C)C)c5c4)n3)nc2)CC1` + COc1c(OCCCN2CCOCC2)ccc2c3n(c(=NC(=O)c4cnc(N)nc4)nc12)CCN3 was tested. Which IC50 (second compound 0.00316 µM) did it give?
Answer: > 1 µM

Question: What about the IC50 (second compound 0.01 µM) of the same compound?
Answer: 0.662 µM

Question: And the IC50 (second compound 0.0316 µM)?
Answer: 0.256 µM

Question: What about the IC50 (second compound 0.1 µM) of the same compound?
Answer: 0.00532 µM

Question: And the IC50 (second compound 0.316 µM)?
Answer: < 0.00316 µM

Question: And the IC50 (second compound 1 µM)?
Answer: < 0.00316 µM

Question: And the viability, T/C (second compound 0.00316 µM, first compound 0.00316 µM)?
Answer: 88.6%

Question: What about the viability, T/C (second compound 0.00316 µM, first compound 0.01 µM) of the same compound?
Answer: 83.6%

Question: And the viability, T/C [1]?
Answer: 80.5%

Question: And the viability, T/C [2]?
Answer: 82.3%

Question: And the viability, T/C [3]?
Answer: 95.2%

Question: What about the viability, T/C [4] of the same compound?
Answer: 53.5%

Question: What about the viability, T/C (second compound 0.01 µM, first compound 0.00316 µM) of the same compound?
Answer: 107%

Question: What about the viability, T/C (second compound 0.01 µM, first compound 0.01 µM) of the same compound?
Answer: 82.3%

Question: What about the viability, T/C [7] of the same compound?
Answer: 110%

Question: And the viability, T/C [8]?
Answer: 89.8%

Question: And the viability, T/C [9]?
Answer: 79.4%

Question: What about the viability, T/C [10] of the same compound?
Answer: 33.8%

Question: What about the viability, T/C (second compound 0.0316 µM, first compound 0.00316 µM) of the same compound?
Answer: 90.2%

Question: What about the viability, T/C (second compound 0.0316 µM, first compound 0.01 µM) of the same compound?
Answer: 81.8%

Question: What about the viability, T/C [13] of the same compound?
Answer: 82.2%

Question: What about the viability, T/C [14] of the same compound?
Answer: 75.1%

Question: And the viability, T/C [15]?
Answer: 44.3%

Question: What about the viability, T/C [16] of the same compound?
Answer: 22.3%

Question: What about the viability, T/C (second compound 0.1 µM, first compound 0.00316 µM) of the same compound?
Answer: 57%

Question: What about the viability, T/C (second compound 0.1 µM, first compound 0.01 µM) of the same compound?
Answer: 41.3%

Question: What about the viability, T/C [19] of the same compound?
Answer: 30.7%

Question: And the viability, T/C [20]?
Answer: 24.1%

Question: And the viability, T/C [21]?
Answer: 18.2%

Question: What about the viability, T/C [22] of the same compound?
Answer: 17.9%

Question: What about the viability, T/C (second compound 0.316 µM, first compound 0.00316 µM) of the same compound?
Answer: 25.4%

Question: And the viability, T/C (second compound 0.316 µM, first compound 0.01 µM)?
Answer: 16.3%

Question: And the viability, T/C [25]?
Answer: 14.8%

Question: And the viability, T/C [26]?
Answer: 16.9%

Question: And the viability, T/C [27]?
Answer: 17.1%

Question: What about the viability, T/C [28] of the same compound?
Answer: 16.6%

Question: What about the viability, T/C (second compound 1 µM, first compound 0.00316 µM) of the same compound?
Answer: 15.2%

Question: And the viability, T/C (second compound 1 µM, first compound 0.01 µM)?
Answer: 16.1%

Question: What about the viability, T/C [31] of the same compound?
Answer: 13.6%

Question: What about the viability, T/C [32] of the same compound?
Answer: 16.8%

Question: What about the viability, T/C [33] of the same compound?
Answer: 19%

Question: And the viability, T/C [34]?
Answer: 16.4%

Question: Which results are given for `Cn1ncc(Cl)c1-c1cc(C(=O)NC(CN)Cc2cccc(F)c2)sc1Cl` (stereo unspecified) + COc1c(OCCCN2CCOCC2)ccc2c3n(c(=NC(=O)c4cnc(N)nc4)nc12)CCN3?
Answer: IC50 (second compound 0.00316 µM): 1.01 µM; IC50 (second compound 0.01 µM): 0.653 µM; IC50 (second compound 0.0316 µM): 0.368 µM; IC50 (second compound 0.1 µM): < 0.0316 µM; IC50 (second compound 0.316 µM): < 0.0316 µM; IC50 (second compound 1 µM): < 0.0316 µM; viability, T/C [1]: 88.3%; viability, T/C [2]: 82.3%; viability, T/C [3]: 77.4%; viability, T/C [4]: 48.8%; viability, T/C [5]: 32.7%; viability, T/C [6]: 25.2%; viability, T/C [7]: 83.4%; viability, T/C [8]: 83.7%; viability, T/C [9]: 67%; viability, T/C [10]: 36.9%; viability, T/C [11]: 30.9%; viability, T/C [12]: 14.7%; viability, T/C [13]: 83%; viability, T/C [14]: 80.3%; viability, T/C [15]: 51.1%; viability, T/C [16]: 29.1%; viability, T/C [17]: 29%; viability, T/C [18]: 12.9%; viability, T/C [19]: 39.4%; viability, T/C [20]: 34.8%; viability, T/C [21]: 28.4%; viability, T/C [22]: 24.3%; viability, T/C [23]: 20.5%; viability, T/C [24]: 7.64%; viability, T/C [25]: 20.5%; viability, T/C [26]: 19.1%; viability, T/C [27]: 17.4%; viability, T/C [28]: 19.6%; viability, T/C [29]: 23.4%; viability, T/C [30]: 3.82%; viability, T/C [31]: 18%; viability, T/C [32]: 16.8%; viability, T/C [33]: 16.9%; viability, T/C [34]: 16.1%; viability, T/C [35]: 16%; viability, T/C [36]: 1.05%
